Measured values: patent US11534412B2, “Application of totarol and pharmaceutical composition containing totarol” (Emergopharm SP. Z O.O. SP.K., priority 2017, dated 2022)

Test system: Gardnerella vaginalis - clinical strain
Assay: Determination of the MIC value of totarol, broth dilution in 96-well plates with OD and quantitative culture
Assay type: cell-based
Settings: for OD, average of 3 measurements: 620 nm
Description: Test of antibacterial activity of totarol using DMI (dimethylisosorbide) as a solvent.
A suspension of 0.5 McF in physiological saline (suspension density 10^8 cfu/ml) was prepared from a 24-hour culture of a standard strain. 1 ml of the suspension was collected to 9 ml of a TSB broth ([…]). Suspensions with a dilution of 10^−6 were prepared in the described way. A suspension with a cell density of 10^5 cfu/ml was selected for further investigations. For each strain, 2 96-well plates were prepared: the first one was intended for the OD measurement, the second one—for quantitative culture on solid media. • A/ to wells B1-D1, B2-D2 and B-D 4-11, 100 µl of the broth were added; • B/ to wells B3-D3, 200 µl of the broth were added; • C/ to wells B1-D1, 1 µl of stock I was added; • D/ to wells B2-D2, 1 µl of stock II was added; • E/ to wells B3-D3, 2 µl of stock III were added. Using a multichannel pipette, 100 µl of the sample were collected from each of the B3-D3 wells and placed in wells B4-D4 (mixing by sucking the content in and letting it out for 5 times). The pipette tips were replaced and 100 µl of the content were collected from of the B4-D4 wells, and placed in wells B5-D5, mixing as previously. These operations were repeated through the wells B11-D11. The content in the B11-D11 wells was mixed, and 100 µl of the fluid were collected and discarded. This way, a series of dilutions of totarol samples in DMI in the range of 0.32% to 0.0004% was obtained. Then, 100 µl of a corresponding bacterial culture were added to the wells B, C, D 1-11. In consequence, a change in the final concentration range occurred, to 0.16%-0.0002%. Control Preparation: • Negative control: 100 µl of the broth+1 pl DMI were added to the Al well. • Positive control (I): 100 µl of the broth with the bacterial culture were added to the wells E1-G1. • Diluent positive control (II): 100 µl of the broth with the bacterial culture+1 pl DMI were added to the wells E2-G2. The OD value in the individual wells was read at the wavelength of 620 nm (read time 0). From the second 96-well plate, a culture was inoculated by a quantitative method from every dilution onto a well with a proper solid medium, and incubated for 24 h at 37° C. under aerobic or anaerobic conditions, depending on the strain. The plates were incubated under aerobic conditions or in an atmosphere of an elevated CO2 concentration (for the strains requiring it) in an incubator at 37° C. The OD was read after 8 h, 16 h, and 24 h, respectively. Before every OD measurement, the contents of the wells were mixed delicately. In parallel to the OD readout, cultures we inoculated from the second 96-well plate, from every dilution, into plates with a proper solid medium, and incubated for 24 h at 37° C., under aerobic or anaerobic conditions. For the analysis of the experimental results, an average value of the OD measurement obtained from three repetitions in the individual times (0, 8, 16, and 24 h) for the individual microbes (Gardnerella vaginalis, Streptococcus agalactiae, Enterococcus faecalis, Lactobacillus gasseri/plantarum) was taken. Additionally, the number of bacteria grown on solid media was taken into account. The results of the tests confirm the specific, concentration-dependent selectiveness, and the high antibacterial effectiveness of totarol against the pathogenic microorganisms: Gardnerella vaginalis, Streptococcus agalactiae, Enterococcus faecalis at low MIC values safe for bacteria of the Lactobacillus genus.

SMILES: CC(C)c1c(O)ccc2c1CC[C@H]1C(C)(C)CCC[C@]21C [Totarol, totarol]
- MIC value (G. vaginalis): 0.005%
- difference in values of MIC concentrations (bacilli of the Lactobacillus genus versus Gardnerella vaginalis): approximately 10 fold
- viable count by quantitative culture (cfu/ml) (totarol 0.0002%, 0 h): 1.5 × 10^5 cfu/ml
- OD, average of 3 measurements (totarol 0.0002%, 0 h): 0.313
- viable count by quantitative culture (cfu/ml) (totarol 0.0002%, 8 h): 2 × 10^5 cfu/ml
- OD, average of 3 measurements (totarol 0.0002%, 8 h): 0.328
- viable count by quantitative culture (cfu/ml) (totarol 0.0002%, 16 h): 2 × 10^5 cfu/ml
- OD, average of 3 measurements (totarol 0.0002%, 16 h): 0.364
- viable count by quantitative culture (cfu/ml) (totarol 0.0002%, 24 h): 2.2 × 10^5 cfu/ml
- OD, average of 3 measurements (totarol 0.0002%, 24 h): 0.398
- viable count by quantitative culture (cfu/ml) (totarol 0.0004%, 0 h): 2.2 × 10^5 cfu/ml
- OD, average of 3 measurements (totarol 0.0004%, 0 h): 0.326
- viable count by quantitative culture (cfu/ml) (totarol 0.0004%, 8 h): 2 × 10^5 cfu/ml
- OD, average of 3 measurements (totarol 0.0004%, 8 h): 0.334
- viable count by quantitative culture (cfu/ml) (totarol 0.0004%, 16 h): 4.9 × 10^5 cfu/ml
- OD, average of 3 measurements (totarol 0.0004%, 16 h): 0.362
- viable count by quantitative culture (cfu/ml) (totarol 0.0004%, 24 h): 3.9 × 10^5 cfu/ml
- OD, average of 3 measurements (totarol 0.0004%, 24 h): 0.390
- viable count by quantitative culture (cfu/ml) (totarol 0.0007%, 0 h): 9 × 10^4 cfu/ml
- OD, average of 3 measurements (totarol 0.0007%, 0 h): 0.315
- viable count by quantitative culture (cfu/ml) (totarol 0.0007%, 8 h): 6 × 10^4 cfu/ml
- OD, average of 3 measurements (totarol 0.0007%, 8 h): 0.307
- viable count by quantitative culture (cfu/ml) (totarol 0.0007%, 16 h): 2.1 × 10^5 cfu/ml
- OD, average of 3 measurements (totarol 0.0007%, 16 h): 0.326
- viable count by quantitative culture (cfu/ml) (totarol 0.0007%, 24 h): 3.8 × 10^5 cfu/ml
- OD, average of 3 measurements (totarol 0.0007%, 24 h): 0.346
- viable count by quantitative culture (cfu/ml) (totarol 0.0013%, 0 h): 1 × 10^5 cfu/ml
- OD, average of 3 measurements (totarol 0.0013%, 0 h): 0.321
- viable count by quantitative culture (cfu/ml) (totarol 0.0013%, 8 h): 2.7 × 10^4 cfu/ml
- OD, average of 3 measurements (totarol 0.0013%, 8 h): 0.314
- viable count by quantitative culture (cfu/ml) (totarol 0.0013%, 16 h): 6.2 × 10^5 cfu/ml
- OD, average of 3 measurements (totarol 0.0013%, 16 h): 0.318
- viable count by quantitative culture (cfu/ml) (totarol 0.0013%, 24 h): 1.2 × 10^5 cfu/ml
- OD, average of 3 measurements (totarol 0.0013%, 24 h): 0.322
- viable count by quantitative culture (cfu/ml) (totarol 0.0025%, 0 h): 1.3 × 10^5 cfu/ml
- OD, average of 3 measurements (totarol 0.0025%, 0 h): 0.312
- viable count by quantitative culture (cfu/ml) (totarol 0.0025%, 8 h): 5 × 10^4 cfu/ml
- OD, average of 3 measurements (totarol 0.0025%, 8 h): 0.311
- viable count by quantitative culture (cfu/ml) (totarol 0.0025%, 16 h): 5.2 × 10^4 cfu/ml
- OD, average of 3 measurements (totarol 0.0025%, 16 h): 0.314
- viable count by quantitative culture (cfu/ml) (totarol 0.0025%, 24 h): 2.3 × 10^4 cfu/ml
- OD, average of 3 measurements (totarol 0.0025%, 24 h): 0.317
- viable count by quantitative culture (cfu/ml) (totarol 0.005%, 0 h): 3.1 × 10^5 cfu/ml
- OD, average of 3 measurements (totarol 0.005%, 0 h): 0.318
- viable count by quantitative culture (cfu/ml) (totarol 0.005%, 8 h): 0 cfu/ml
- OD, average of 3 measurements (totarol 0.005%, 8 h): 0.318
- viable count by quantitative culture (cfu/ml) (totarol 0.005%, 16 h): 0 cfu/ml
- OD, average of 3 measurements (totarol 0.005%, 16 h): 0.323
- viable count by quantitative culture (cfu/ml) (totarol 0.005%, 24 h): 0 cfu/ml
- OD, average of 3 measurements (totarol 0.005%, 24 h): 0.327
- viable count by quantitative culture (cfu/ml) (totarol 0.01%, 0 h): 1.6 × 10^5 cfu/ml
- OD, average of 3 measurements (totarol 0.01%, 0 h): 0.319
- viable count by quantitative culture (cfu/ml) (totarol 0.01%, 8 h): 0 cfu/ml
- OD, average of 3 measurements (totarol 0.01%, 8 h): 0.323
- viable count by quantitative culture (cfu/ml) (totarol 0.01%, 16 h): 0 cfu/ml
- OD, average of 3 measurements (totarol 0.01%, 16 h): 0.325
- viable count by quantitative culture (cfu/ml) (totarol 0.01%, 24 h): 0 cfu/ml
- OD, average of 3 measurements (totarol 0.01%, 24 h): 0.328
- viable count by quantitative culture (cfu/ml) (totarol 0.02%, 0 h): 2.1 × 10^5 cfu/ml
- OD, average of 3 measurements (totarol 0.02%, 0 h): 0.344
- viable count by quantitative culture (cfu/ml) (totarol 0.02%, 8 h): 0 cfu/ml
- OD, average of 3 measurements (totarol 0.02%, 8 h): 0.332
- viable count by quantitative culture (cfu/ml) (totarol 0.02%, 16 h): 0 cfu/ml
- OD, average of 3 measurements (totarol 0.02%, 16 h): 0.333
- viable count by quantitative culture (cfu/ml) (totarol 0.02%, 24 h): 0 cfu/ml
- OD, average of 3 measurements (totarol 0.02%, 24 h): 0.334
- viable count by quantitative culture (cfu/ml) (totarol 0.04%, 0 h): 3.7 × 10^5 cfu/ml
- OD, average of 3 measurements (totarol 0.04%, 0 h): 0.460
- viable count by quantitative culture (cfu/ml) (totarol 0.04%, 8 h): 0 cfu/ml
- OD, average of 3 measurements (totarol 0.04%, 8 h): 0.416
- viable count by quantitative culture (cfu/ml) (totarol 0.04%, 16 h): 0 cfu/ml
- OD, average of 3 measurements (totarol 0.04%, 16 h): 0.411
- viable count by quantitative culture (cfu/ml) (totarol 0.04%, 24 h): 0 cfu/ml
- OD, average of 3 measurements (totarol 0.04%, 24 h): 0.379
- viable count by quantitative culture (cfu/ml) (totarol 0.08%, 0 h): 6.1 × 10^5 cfu/ml
- OD, average of 3 measurements (totarol 0.08%, 0 h): 0.740
- viable count by quantitative culture (cfu/ml) (totarol 0.08%, 8 h): 0 cfu/ml
- OD, average of 3 measurements (totarol 0.08%, 8 h): 0.523
- viable count by quantitative culture (cfu/ml) (totarol 0.08%, 16 h): 0 cfu/ml
- OD, average of 3 measurements (totarol 0.08%, 16 h): 0.455
- viable count by quantitative culture (cfu/ml) (totarol 0.08%, 24 h): 0 cfu/ml
- OD, average of 3 measurements (totarol 0.08%, 24 h): 0.441
- viable count by quantitative culture (cfu/ml) (totarol 0.16%, 0 h): 1.4 × 10^5 cfu/ml
- OD, average of 3 measurements (totarol 0.16%, 0 h): 0.822
- viable count by quantitative culture (cfu/ml) (totarol 0.16%, 8 h): 0 cfu/ml
- OD, average of 3 measurements (totarol 0.16%, 8 h): 0.564
- viable count by quantitative culture (cfu/ml) (totarol 0.16%, 16 h): 0 cfu/ml
- OD, average of 3 measurements (totarol 0.16%, 16 h): 0.451
- viable count by quantitative culture (cfu/ml) (totarol 0.16%, 24 h): 0 cfu/ml
- OD, average of 3 measurements (totarol 0.16%, 24 h): 0.438
